In US6500819B2, “Bicyclolactam compounds, use thereof and intermediates for preparing thereof” (Taiho Pharmaceutical Company Limited, priority 1994, dated 2002):

Tests used:
Wistar rats [1] = assay: Anticonflict test (first part, Test Example 1); type: in vivo; conditions: for Frequency of water drinking behavior: 1 h before test, value relative to control = 100; for Anxiolytic effect in the anticonflict test (in words): oral, compounds at doses of 0.001 to 1.0 mg/kg
Description: (§1) Wistar rats (males weighing 140 to 160 g) were used for experiment in groups of 11 to 14.
The test compound, diazepam or buspirone was suspended in a 0.5 % sodiumn carboxymethyl cellulose solution, and the suspension was orally given to the animal in a volume of 5 mnl/kg one hour before the start of experiment.
With reference to a method described in “Process in Anxiolytics and Antidepresants,” ediled by Showa Ueki and Tatsuo Furukawa, Ishiyaku Shuppansha, 56-59 (1981) , the agents were tested using experimental boxes having a grid floor and a metal drinking tube in the floor. No water was supplied to the rats for 48 hours before the experiment. Upon lapse of first 24 hours, each group of rats were placed into the experimental box, permitted access to water for 30 seconds and caused to recognize the metal drinking tube. Upon lapse of further 24 hours with access to water prevented, the rats were placed into the box again and permitted access to water on condition that an electric current was passed between the metal drinking tube and the grid to give an electroshock for every 20 times of water drinking behavior to measure the frequency of water drinking behavior for 3 minutes.
The frequency is expessed by a value relative to the frequency of the control which is taken as 100.

[2] = Acute toxicity test (LD50), first part; type: in vivo; conditions: mouse, in vivo; oral, male ddY mice, observed for 3 days
Wistar rats [3] = assay: Anticonflict test (second part, relieving rate of anxiety); type: in vivo; conditions: oral, dose of 1.0 mg/kg
Description: as §1
No water was supplied to the rats for 48 hours before the experiment. Upon lapse of first 24 hours, each group of rats were placed into the experimental box, permitted access to water for 30 seconds and caused to recognize the metal drinking tube. Upon lapse of further 24 hours with access to water prevented, the rats were placed into the box again and permitted access to water on condition that an electric current was passed between the metal drinking tube and the grid to give an electroshock for every 20 times of water drinking behavior to measure the frequency of water drinking behavior for 3 minutes. Anxiolytic effect was evaluated as relieving rate of anxiety as calculated by the following equation.

Wistar rats [4] = assay: Elevated plus maze test; type: in vivo; conditions: 1 h before test, relative to control = 100
Description: Wistar rats (males weighing 170 to 220 g) were used for experiment in groups of 4 to 9.
The test compound, diazepam or buspirone was suspended in a 0.5 %) sodium carboxymethyl cellulose solution, and the suspension was orally given to the animal in a volume of 5 ml/kg one hour before the start of experiment.
The test was conducted using an experimental device, Model BTA-2, Behavior Analysis System (product of Muromachi Kikai Co., Ltd.) with reference to a method described in Psychopharmacology, 99, 48˜53(1989). […] Each group of rats orally given the test drug were placed in the center square, and the behavior of the animals was recorded for 5 minutes using a behavior analyzer. The ratio of the number of entries into the open arm to the number of entries into all the arms was determined for evaluating the anxiolytic effect.
The ratio of entries into the open arm is expressed by a value relative to the ratio attained by the control which is taken as 100.

ddY mice [5] = assay: Sedative effect (spontaneous locomotor activity), second part; conditions: male, ddY, mouse, in vivo, po, 1 h
Description: Sedative Effect (Spontaneous locomotor activity)
Compound 1′a-1, the comparison compound, diazepam or buspirone was suspended in a 0.5% sodium carboxymethyl cellulose solution, and the suspension was orally administered to 3- to 4-week-old male ddY mice (in groups of 5) in a volume of 10 ml/kg one hour before the start of experiment.
The test was conducted with reference to a method described in “Evaluation of Medicinal Efficacies (1), Pharmacological Test Method (I), Basic Lectures on Development of Pharmaceuticals,” 50˜54(1971). More specifically, the group of mice were given the test drug and thereafter measured the amount of spontaneous locomotor activity for 10 minutes per mouse using Animex MK-110 (Muromachi Kikai Co., Ltd.).

ddY mice [6] = assay: Anticonvulsant effect (pentylenetetrazol-induced convulsion method), second part; type: in vivo; conditions: Mus musculus, 1 h, read-out: ED50, anticonvulsant effect (no death within 60 minutes)
Description: Anticonvulsant Effect (Pentylenetetrazol-induced Convulsion Method)
Compound 1′a-1, the comparison compound, diazepam or j buspirone was suspended, in a 0.5% sodium carboxymethyl cellulose solution, and the suspension was orally administered to 3- to 4-week-old maple ddY mice (in groups of 6) in a volume of 10 ml/kg one hour before the start of experiment.
The test was conducted with reference to a method described in “Evaluation of Medicinal Efficacies (1), Pharmacological Test Method (I), Basic Lectures on Development of Pharmaceuticals,” 167˜172(1971).

With `COc1ccc(C(=O)N2C(=O)CCC3CCCCC32)cc1` (stereo not shown) [Compound 1, 2-(4-methoxybenzoyl)-2-azabicyclo[4.4.0)decane-3-one] as the compound, how does the Frequency of water drinking behavior (Wistar rats [1]; dose 0.01 mg/kg oral) read?
The Frequency of water drinking behavior was 138%.

And the Frequency of water drinking behavior (Wistar rats [1]; dose 0.1 mg/kg oral)?
Its Frequency of water drinking behavior is 140%.

And the Frequency of water drinking behavior (Wistar rats [1]; dose 1.0 mg/kg oral)?
Its Frequency of water drinking behavior is 122%.

What about the “Anxiolytic effect in the anticonflict test (in words)” value (“Anxiolytic effect” below) (Wistar rats [1]) of the same compound?
The value was “increase in the frequency of water drinking behavior”.

What about the LD50 at 3 days [2] of the same compound?
Its LD50 at 3 days is over 2000 mg/kg.

For `COc1ccc(C(=O)N2C(=O)CC[C@@H]3[C@H]2CC[C@H]3OCc2ccccc2)cc1` (racemic) [Compound 4a-1, (1RS, 6RS, 7RS)-7-benzyloxy-2-(4-methoxybenzoyl)-2-azabicyclo[4.3.0]nonan-3-one], which melting point is on record?
Its melting point is 109.5 °C.

With `COc1ccc(C(=O)N2C(=O)CC3CCCCC32)cc1` (stereo not shown) [Compound 11, 7-(4-methoxybenzoyl)-7-azabicyclo[4.3.0]nonane-8-one] as the compound, how does the Frequency of water drinking behavior (Wistar rats [1]; dose 1.0 mg/kg oral) read?
Its Frequency of water drinking behavior is 133%.

And the “Anxiolytic effect” value (Wistar rats [1])?
Its value is “increase in the frequency of water drinking behavior”.

What about the LD50 at 3 days [2] of the same compound?
Its LD50 at 3 days is over 2000 mg/kg.

Which “Anxiolytic effect” value (Wistar rats [3]) does the source give for `O=C1CC2(CCCC2)CC(=O)N1CCCCN1CCN(c2ncccn2)CC1` [Buspirone, buspirone, reference compound] here?
The value was “almost ineffective”.

What about the Frequency of water drinking behavior (Wistar rats [1]; dose 1.0 mg/kg oral) of the same compound?
Its Frequency of water drinking behavior is 103%.

And the “Anxiolytic effect” value (Wistar rats [1])?
Its value is “almost ineffective”.

And the “Ratio of entries into open arm” value (Wistar rats [4]; dose 1.0 oral)?
Its value is 98.

And the “Ratio of entries into open arm” value (Wistar rats [4]; dose 10.0 oral)?
Its value is 93.

What about the “ED6O, sedative effect (spontaneous locomotor activity up to 50% of control)” value (ddY mice [5]) of the same compound?
Its value is 149.7 mg/kg.

And the ED50 (ddY mice [6])?
Its ED50 is at least 300 mg/kg.
